# From patent publication US12285407B2, “Bis-indolylmethane derivatives and uses thereof” (The University of The West Indies, priority 2018, dated 2025)
# Experiments:
# Escherichia coli [1] = assay: Checkerboard synergy (FICI) of antibiotics with SP-BIM; design: MIC SP-BIM 13 only / MIC in combination: Antibiotic: unit not given beside the values; conditions: for MIC antibiotic only: antibiotic alone
# Klebsiella pneumoniae [2] = assay: as above; assay type: cell-based; conditions: for MIC antibiotic only: antibiotic alone
# Streptococcus pneumoniae [3] = assay: as above; assay type: cell-based; conditions: for MIC antibiotic only: antibiotic alone
# Staphylococcus aureus = assay: as above; assay type: cell-based; conditions: Staphylococcus aureus; for MIC antibiotic only: antibiotic alone
# Enterococcus faecium = assay: as above; assay type: cell-based; conditions: Enterococcus faecium; for MIC antibiotic only: antibiotic alone
# Candida albicans = assay: as above; design: MIC SP-BIM 13 only / MIC in combination: Antibiotic / MIC antibiotic only: unit not given beside the values
# Bacillus cereus = assay: as above; assay type: cell-based; conditions: for MIC antibiotic only: antibiotic alone
# Escherichia coli [4] = assay: microbe, parasite or virus in culture; assay type: cell-based; conditions: antibiotic alone, Table 6
# Klebsiella pneumoniae [5] = assay: Adjuvant broth microdilution (antibiotic MIC with SP-BIM at 50 μg/mL); assay type: cell-based; conditions: Klebsiella pneumoniae; antibiotic alone; Table 7
# MRSA = assay: as above; assay type: cell-based, Staphylococcus aureus; conditions: antibiotic alone, Table 4
# Streptococcus pneumoniae [6] = assay: as above; assay type: cell-based; conditions: Streptococcus pneumonia; antibiotic alone; Table 5
# Enterococcus faecalis = assay: as above; assay type: cell-based; conditions: antibiotic alone
# Escherichia coli O157:H7 = assay: Rescue concentrations of SP-BIM that reactivate antibiotic; assay type: cell-based
# clinical strains of MRSA = assay: Kirby Bauer disc diffusion susceptibility profile; assay type: cell-based, Staphylococcus aureus; conditions: for Zone of clearance: 35° C., 24 hours, average n=3; for Interpretive standard (resistant/susceptible): zones vs EUCAST breakpoints (Table 30)
# [7] = MIC of the antibiotic in combination with SP-BIM 13
# [8] = SP-BIM 9 concentration in combination with the labelled antibiotic
# [9] = SP-BIM 9 in combination with the labelled antibiotic
# [10] = SP-BIM 13 in combination with the labelled antibiotic
# [11] = antibiotic in combination with SP-BIM 9
# [12] = SP-BIM 13 concentration in combination with the labelled antibiotic
# [13] = antibiotic in combination with SP-BIM 13
# [14] = Streptococcus pneumonia (title: Streptococcus pyogenes), antibiotic + SP-BIM 9
# [15] = Streptococcus pneumoniae, antibiotic + SP-BIM 13
smiles,measurement,setting,value
"CC1=C(C(=O)O)N2C(=O)[C@@H](NC(=O)[C@H](N)c3ccccc3)[C@H]2SC1 [Cephalexin, cefalexin]",MIC in combination: Antibiotic,Escherichia coli [1]; [7],125
same,"MIC in combination, SP-BIM 9",Escherichia coli [1]; [8],125 µg/mL
same,FIC of SP-BIM 9,Escherichia coli [1]; [9],0.5
same,FIC of SP-BIM 13,Escherichia coli [1]; [10],0.3
same,Interpretation,Escherichia coli [1]; antibiotic + SP-BIM 9,Synergy (Synergy: FICI≤0.5)
same,Σ FIC,Escherichia coli [1]; antibiotic + SP-BIM 9,<0.6
same,Interpretation,Escherichia coli [1]; antibiotic + SP-BIM 13,Additive (Additive: FICI>0.5-1.0)
same,Σ FIC,Escherichia coli [1]; antibiotic + SP-BIM 13,<0.8
same,MIC antibiotic only,Escherichia coli [1],>250
same,MIC antibiotic only,Escherichia coli [1]; SP-BIM 9 checkerboard,250 µg/mL
same,"MIC in combination, Antibiotic",Escherichia coli [1]; [11],16 µg/mL
same,FIC of antibiotic,Escherichia coli [1]; combination with SP-BIM 13,0.5
same,FIC of antibiotic,Escherichia coli [1]; in combination with SP-BIM 9,0.064
same,"MIC in combination, SP-BIM 9",Klebsiella pneumoniae [2]; [8],125 µg/mL
same,FIC of SP-BIM 9,Klebsiella pneumoniae [2]; [9],0.5
same,"MIC in combination, SP-BIM 13",Klebsiella pneumoniae [2]; [12],63 µg/mL
same,FIC of SP-BIM 13,Klebsiella pneumoniae [2]; [10],0.3
same,Interpretation,Klebsiella pneumoniae [2]; antibiotic + SP-BIM 9,Synergy (Synergy: FICI≤0.5)
same,Σ FIC,Klebsiella pneumoniae [2]; antibiotic + SP-BIM 9,<0.5
same,Interpretation,Klebsiella pneumoniae [2]; antibiotic + SP-BIM 13,Synergy (Synergy: FICI≤0.5)
same,Σ FIC,Klebsiella pneumoniae [2]; antibiotic + SP-BIM 13,<0.5
same,MIC antibiotic only,Klebsiella pneumoniae [2]; SP-BIM 9 checkerboard,250 µg/mL
same,MIC antibiotic only,Klebsiella pneumoniae [2]; SP-BIM 13 checkerboard,250 µg/mL
same,"MIC in combination, Antibiotic",Klebsiella pneumoniae [2]; [11],4 µg/mL
same,"MIC in combination, Antibiotic",Klebsiella pneumoniae [2]; [13],63 µg/mL
same,FIC of antibiotic,Klebsiella pneumoniae [2]; in combination with SP-BIM 9,0.016
same,FIC of antibiotic,Klebsiella pneumoniae [2]; in combination with SP-BIM 13,0.3
same,"MIC in combination, SP-BIM 9","Streptococcus pneumoniae [3]; Streptococcus pneumonia (title: Streptococcus pyogenes), SP-BIM 9 concentration in combination with the labelled antibiotic",125 µg/mL
same,FIC of SP-BIM 9,"Streptococcus pneumoniae [3]; Streptococcus pneumonia (title: Streptococcus pyogenes), SP-BIM 9 in combination with the labelled antibiotic",0.50
same,Interpretation,Streptococcus pneumoniae [3]; [14],Additive (Additive: FICI>0.5-1.0)
same,Σ FIC,Streptococcus pneumoniae [3]; [14],<0.63
same,MIC antibiotic only,"Streptococcus pneumoniae [3]; Streptococcus pneumonia (title: Streptococcus pyogenes), SP-BIM 9 checkerboard",250 µg/mL
same,"MIC in combination, Antibiotic","Streptococcus pneumoniae [3]; Streptococcus pneumonia (title: Streptococcus pyogenes), antibiotic in combination with SP-BIM 9",32 µg/mL
same,FIC of antibiotic,"Streptococcus pneumoniae [3]; Streptococcus pneumonia (title: Streptococcus pyogenes), in combination with SP-BIM 9",0.13
same,"MIC in combination, SP-BIM 13","Streptococcus pneumoniae [3]; Streptococcus pneumoniae, SP-BIM 13 concentration in combination with the labelled antibiotic",63 µg/mL
same,FIC of SP-BIM 13,"Streptococcus pneumoniae [3]; Streptococcus pneumoniae, SP-BIM 13 in combination with the labelled antibiotic",0.3
same,Interpretation,Streptococcus pneumoniae [3]; [15],Synergy (Synergy: FICI≤0.5)
same,Σ FIC,Streptococcus pneumoniae [3]; [15],<0.3
same,MIC antibiotic only,"Streptococcus pneumoniae [3]; Streptococcus pneumoniae, SP-BIM 13 checkerboard",250 µg/mL
same,"MIC in combination, Antibiotic","Streptococcus pneumoniae [3]; Streptococcus pneumoniae, antibiotic in combination with SP-BIM 13",2 µg/mL
same,FIC of antibiotic,"Streptococcus pneumoniae [3]; Streptococcus pneumoniae, in combination with SP-BIM 13",0.0
same,"MIC in combination, SP-BIM 9",Staphylococcus aureus; [8],16.0 µg/mL
same,FIC of SP-BIM 9,Staphylococcus aureus; [9],0.06
same,"MIC in combination, SP-BIM 13",Staphylococcus aureus; [12],63 µg/mL
same,FIC of SP-BIM 13,Staphylococcus aureus; [10],0.5
same,Interpretation,Staphylococcus aureus; antibiotic + SP-BIM 9,Synergy (Synergy: FICI≤0.5)
same,Σ FIC,Staphylococcus aureus; antibiotic + SP-BIM 9,<0.19
same,Interpretation,Staphylococcus aureus; antibiotic + SP-BIM 13,Additive (Additive: FICI>0.5-1.0)
same,Σ FIC,Staphylococcus aureus; antibiotic + SP-BIM 13,0.6
same,MIC antibiotic only,Staphylococcus aureus; SP-BIM 9 checkerboard,4 µg/mL
same,MIC antibiotic only,Staphylococcus aureus; SP-BIM 13 checkerboard,4 µg/mL
same,"MIC in combination, Antibiotic",Staphylococcus aureus; [11],0.5 µg/mL
same,"MIC in combination, Antibiotic",Staphylococcus aureus; [13],0.5 µg/mL
same,FIC of antibiotic,Staphylococcus aureus; in combination with SP-BIM 9,0.13
same,FIC of antibiotic,Staphylococcus aureus; in combination with SP-BIM 13,0.1
same,"MIC in combination, SP-BIM 13",Enterococcus faecium; [12],63 µg/mL
same,FIC of SP-BIM 13,Enterococcus faecium; [10],0.5
same,Interpretation,Enterococcus faecium; antibiotic + SP-BIM 13,Synergy (Synergy: FICI≤0.5)
same,Σ FIC,Enterococcus faecium; antibiotic + SP-BIM 13,0.5
same,MIC antibiotic only,Enterococcus faecium; SP-BIM 9 checkerboard,250 µg/mL
same,MIC antibiotic only,Enterococcus faecium; SP-BIM 13 checkerboard,250 µg/mL
same,"MIC in combination, Antibiotic",Enterococcus faecium; [13],8 µg/mL
same,FIC of antibiotic,Enterococcus faecium; in combination with SP-BIM 13,0.0
same,MIC in combination: Antibiotic,Candida albicans; [7],63
same,FIC of SP-BIM 13,Candida albicans; [10],0.5
same,Interpretation,Candida albicans; antibiotic + SP-BIM 13,Additive (Additive: FICI>0.5-1.0)
same,Σ FIC,Candida albicans; antibiotic + SP-BIM 13,<0.8
same,MIC antibiotic only,Candida albicans; antibiotic alone,>250
same,FIC of antibiotic,Candida albicans; combination with SP-BIM 13,0.3
same,"MIC in combination, SP-BIM 13",Bacillus cereus; [12],32 µg/mL
same,FIC of SP-BIM 13,Bacillus cereus; [10],0.1
same,Interpretation,Bacillus cereus; antibiotic + SP-BIM 13,Synergy (Synergy: FICI≤0.5)
same,Σ FIC,Bacillus cereus; antibiotic + SP-BIM 13,<0.1
same,MIC antibiotic only,Bacillus cereus; SP-BIM 9 checkerboard,>250 µg/mL
same,MIC antibiotic only,Bacillus cereus; SP-BIM 13 checkerboard,250 µg/mL
same,"MIC in combination, Antibiotic",Bacillus cereus; [13],4 µg/mL
same,FIC of antibiotic,Bacillus cereus; in combination with SP-BIM 13,0.02
same,"MIC of antibiotic, No Compound",Escherichia coli [4],>250 µg/mL
same,"MIC of antibiotic, No Compound",Klebsiella pneumoniae [5],8 µg/mL
same,"MIC of antibiotic, No Compound",MRSA,16 µg/mL
same,"MIC of antibiotic, No Compound",Streptococcus pneumoniae [6],250 µg/mL
"NC[C@H]1O[C@H](O[C@H]2[C@H](O)[C@@H](O[C@H]3O[C@H](CO)[C@@H](O)[C@H](N)[C@H]3O)[C@H](N)C[C@@H]2N)[C@H](O)[C@@H](O)[C@@H]1O [Kanamycin, kanamycin]","MIC of antibiotic, No Compound",Enterococcus faecalis,250 µg/mL
same,MIC of Kanamycin in combination with 32 μg/mL SP-BIM 28,"Escherichia coli O157:H7; E. coli O157:H7, with 32 μg/mL SP-BIM 28",1 µg/mL
same,MIC,"Escherichia coli O157:H7; Escherichia coli, read-out: MIC of Kanamycin",8 µg/mL
same,Zone of clearance,clinical strains of MRSA; MRSA strain 1594,11.5 mm
same,Interpretive standard (resistant/susceptible),clinical strains of MRSA; MRSA strain 1594,R
same,Zone of clearance,clinical strains of MRSA; MRSA strain 1621,19.5 mm
same,Interpretive standard (resistant/susceptible),clinical strains of MRSA; MRSA strain 1621,S
same,Zone of clearance,clinical strains of MRSA; MRSA strain 5455,19.5 mm
same,Interpretive standard (resistant/susceptible),clinical strains of MRSA; MRSA strain 5455,S
same,Zone of clearance,clinical strains of MRSA; MRSA strain 5872,0.0 mm
same,Interpretive standard (resistant/susceptible),clinical strains of MRSA; MRSA strain 5872,R
same,Zone of clearance,clinical strains of MRSA; MRSA strain 7153,19.5 mm
same,Interpretive standard (resistant/susceptible),clinical strains of MRSA; MRSA strain 7153,S
same,Zone of clearance,clinical strains of MRSA; MRSA strain 7172,20.5 mm
same,Interpretive standard (resistant/susceptible),clinical strains of MRSA; MRSA strain 7172,S
same,Zone of clearance,clinical strains of MRSA; MRSA strain 7698,8.5 mm
same,Interpretive standard (resistant/susceptible),clinical strains of MRSA; MRSA strain 7698,R
same,Zone of clearance,clinical strains of MRSA; MRSA strain 10132,8.0 mm
same,Interpretive standard (resistant/susceptible),clinical strains of MRSA; MRSA strain 10132,R
